Laboratory results taken from patent publication US11944624B2, “Peptide and small molecule agonists of EphA and their uses” (CASE WESTERN RESERVE UNIVERSITY, priority 2017, dated 2024).

Molecular target: T1, EphB3 (Homo sapiens, UniProt P54753)
T1 construct: expressed in transfected cells; host or cells: HEK 293
T1 sequence (P54753 34-998): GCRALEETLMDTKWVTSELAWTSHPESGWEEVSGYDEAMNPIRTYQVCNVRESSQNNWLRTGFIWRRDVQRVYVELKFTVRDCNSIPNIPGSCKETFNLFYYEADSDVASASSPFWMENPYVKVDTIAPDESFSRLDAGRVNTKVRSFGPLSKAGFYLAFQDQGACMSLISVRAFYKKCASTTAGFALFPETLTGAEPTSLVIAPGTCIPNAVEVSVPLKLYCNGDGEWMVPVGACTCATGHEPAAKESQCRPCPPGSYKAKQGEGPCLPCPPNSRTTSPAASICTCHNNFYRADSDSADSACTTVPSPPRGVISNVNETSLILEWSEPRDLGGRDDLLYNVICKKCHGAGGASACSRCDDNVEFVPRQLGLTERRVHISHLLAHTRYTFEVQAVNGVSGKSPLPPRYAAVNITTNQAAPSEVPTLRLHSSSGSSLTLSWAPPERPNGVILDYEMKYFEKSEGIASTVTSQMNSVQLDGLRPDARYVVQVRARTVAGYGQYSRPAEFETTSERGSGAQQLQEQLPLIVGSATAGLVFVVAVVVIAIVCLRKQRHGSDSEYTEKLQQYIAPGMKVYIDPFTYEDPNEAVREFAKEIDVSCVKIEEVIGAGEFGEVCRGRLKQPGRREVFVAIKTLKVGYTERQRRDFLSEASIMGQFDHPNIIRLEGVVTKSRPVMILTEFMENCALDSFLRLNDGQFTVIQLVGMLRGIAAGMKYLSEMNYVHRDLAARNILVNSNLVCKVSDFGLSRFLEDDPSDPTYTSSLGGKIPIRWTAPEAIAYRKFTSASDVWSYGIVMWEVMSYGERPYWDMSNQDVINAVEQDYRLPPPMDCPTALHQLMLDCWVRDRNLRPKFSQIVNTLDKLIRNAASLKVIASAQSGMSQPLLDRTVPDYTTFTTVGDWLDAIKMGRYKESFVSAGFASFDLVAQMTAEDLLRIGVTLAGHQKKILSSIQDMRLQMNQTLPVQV
Assay: EphB3 activation in HEK 293 cells overexpressing EphB3
Format: cell-based
Details: HEK 293 overexpressing EphB3, high basal activation
Description: Cells were plated in 24-well dishes at a density of 100,000 cells/well and grown for 24 hours prior to stimulation with appropriate compounds and ephrins for the given amounts of time. Compounds were prepared in DMSO at 500 times the final concentrations and 0.2% DMSO was used as vehicle control. Following treatment, cells were lysed directly in SDS Gel Loading Buffer and immunoblotted as described previously. […] For immunoprecipitation, 300,000 cells/well were plated in 6-well dishes and lysed in modified RIPA Buffer (20 mM Tris-HCl pH 7.4, 20 mM NaF, 150 mM NaCl, 10% glycerol, 0.1% SDS, 0.5% DCA, 2 mM EDTA, 1% Triton X-100) following treatment. Either 10 μg of ephrin-A1-Fc, or 4 mg of EphA2 mouse monoclonal antibody (Clone D7, Millipore) were used, and mouse IgG was used as a negative control for EphA2 IP. […] For this purpose, HEK 293 cell lines overexpressing EphA1, EphA2, EphA3, EphA4, and EphB3 kinases were utilized.

COc1cc2nc(N3CCN(C(=O)C4COc5ccccc5O4)CC3)nc(N)c2cc1OC (stereo not shown) [Doxazosin, 2-[4-(2,3-Dihydro-1,4-benzodioxine-2-carbonyl)piperazin-1-yl]-6,7-dimethoxyquinazolin-4-amine]
EphB3 activation: notable decrease in EphB3 activation
